Data: US20230257372A1 (CHONG KUN DANG PHARMACEUTICAL CORP., priority 2020, published 2023)
Read-outs that look alike come from different tables or passages of the source.

Experiments:
human recombinant HDAC1 = molecular target: T1, human recombinant HDAC1 (Homo sapiens, UniProt Q13547); test: HDAC1 enzyme activity inhibition (HDAC Fluorimetric Drug Discovery Kit); format: biochemical; conditions: read-out: HDAC1
T1 construct: purchased Enzo Life Science, Inc. BML-SE456
In short: (§1)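 Enzyme at 0.3 µg per well was reacted with 10 μM fluorogenic substrate in presence of 5-fold diluted compound, 30° C for 60 min.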

human recombinant HDAC6 = molecular target: T2, human recombinant HDAC6 (Homo sapiens, UniProt Q9UBN7); test: HDAC6 enzyme activity inhibition (HDAC Fluorimetric Drug Discovery Kit); format: biochemical
T2 construct: purchased Calbiochem Inc. 382180
T2 sequence (Q9UBN7 1-1215): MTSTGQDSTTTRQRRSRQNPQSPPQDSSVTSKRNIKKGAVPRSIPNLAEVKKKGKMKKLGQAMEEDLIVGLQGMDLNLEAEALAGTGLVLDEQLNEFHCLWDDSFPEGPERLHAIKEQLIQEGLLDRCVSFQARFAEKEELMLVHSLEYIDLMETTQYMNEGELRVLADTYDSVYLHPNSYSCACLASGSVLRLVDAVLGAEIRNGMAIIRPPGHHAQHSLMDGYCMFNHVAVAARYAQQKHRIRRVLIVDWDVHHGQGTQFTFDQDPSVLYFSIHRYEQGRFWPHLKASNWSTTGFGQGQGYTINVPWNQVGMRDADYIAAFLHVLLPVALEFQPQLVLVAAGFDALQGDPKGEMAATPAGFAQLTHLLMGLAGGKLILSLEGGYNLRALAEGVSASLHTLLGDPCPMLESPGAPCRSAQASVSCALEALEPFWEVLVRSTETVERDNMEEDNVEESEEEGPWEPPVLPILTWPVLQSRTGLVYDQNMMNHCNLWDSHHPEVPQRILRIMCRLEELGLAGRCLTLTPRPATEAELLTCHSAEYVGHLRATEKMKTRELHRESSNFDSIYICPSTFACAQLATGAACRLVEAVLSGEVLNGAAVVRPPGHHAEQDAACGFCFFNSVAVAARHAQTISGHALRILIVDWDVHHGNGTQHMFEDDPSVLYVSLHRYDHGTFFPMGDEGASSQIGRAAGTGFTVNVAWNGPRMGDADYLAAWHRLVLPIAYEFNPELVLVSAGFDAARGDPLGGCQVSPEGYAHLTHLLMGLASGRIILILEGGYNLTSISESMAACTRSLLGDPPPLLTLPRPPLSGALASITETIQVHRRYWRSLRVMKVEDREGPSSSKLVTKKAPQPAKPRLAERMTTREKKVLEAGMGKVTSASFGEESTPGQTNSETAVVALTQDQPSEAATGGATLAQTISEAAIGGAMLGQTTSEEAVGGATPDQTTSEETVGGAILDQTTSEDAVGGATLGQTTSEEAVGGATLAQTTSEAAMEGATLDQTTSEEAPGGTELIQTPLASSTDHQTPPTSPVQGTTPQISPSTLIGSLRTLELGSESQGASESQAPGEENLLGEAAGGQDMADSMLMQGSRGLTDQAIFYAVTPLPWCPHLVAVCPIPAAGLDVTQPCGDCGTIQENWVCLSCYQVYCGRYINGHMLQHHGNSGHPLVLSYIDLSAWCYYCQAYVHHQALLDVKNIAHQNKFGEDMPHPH
In short: as §1

[1] = human recombinant HDAC1, Fluor de Lys substrate, 30° C. 60 minutes
[2] = human recombinant HDAC6, same protocol as HDAC1
[3] = human recombinant HDAC1, IC50 calculated with GraphPad Prism
[4] = human recombinant HDAC6, IC50 calculated with GraphPad Prism

T1 sequence (Q13547 whole entry): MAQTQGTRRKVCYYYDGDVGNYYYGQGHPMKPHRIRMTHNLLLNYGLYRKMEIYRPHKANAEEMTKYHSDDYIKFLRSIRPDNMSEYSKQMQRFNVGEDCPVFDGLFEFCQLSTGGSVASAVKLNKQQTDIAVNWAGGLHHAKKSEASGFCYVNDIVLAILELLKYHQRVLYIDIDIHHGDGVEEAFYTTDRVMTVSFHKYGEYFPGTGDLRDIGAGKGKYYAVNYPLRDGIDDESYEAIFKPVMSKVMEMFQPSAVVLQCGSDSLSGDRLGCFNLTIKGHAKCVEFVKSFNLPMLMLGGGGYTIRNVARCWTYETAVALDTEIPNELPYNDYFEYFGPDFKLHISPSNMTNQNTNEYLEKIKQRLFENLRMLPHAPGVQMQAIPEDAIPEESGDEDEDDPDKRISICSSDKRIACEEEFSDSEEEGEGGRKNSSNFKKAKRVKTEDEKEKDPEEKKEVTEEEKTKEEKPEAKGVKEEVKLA

| Compound | IC50 (human recombinant HDAC1; [1]) | HDAC6 selectivity (fold) (human recombinant HDAC6; HDAC6 over HDAC1) | IC50 (human recombinant HDAC6; [2]) | IC50 (human recombinant HDAC1; [3]) | HDAC6 selectivity (fold) (human recombinant HDAC6; HDAC1 IC50 / HDAC6 IC50) | IC50 (human recombinant HDAC6; [4]) |
| --- | --- | --- | --- | --- | --- | --- |
| Fc1cc(-c2nnc(C(F)F)o2)ccc1Cn1cc(-c2ccc(CN3CC[C@H](F)C3)cc2)nn1 [Compound 4606, (S)-2-(difluoromethyl)-5-(3-fluoro-4-((4-(4-((3-fluoropyrrolidin-1-yl)methyl)phenyl)-1H-1,2,3-triazol-1-yl)methyl)phenyl)-1,3,4-oxadiazole] | > 50 µM | 2415 fold | 0.0207 µM | – | – | – |
| Fc1cc(-c2nnc(C(F)F)o2)ccc1Cn1cc(-c2ccnc(N3CCN(C4CCC4)CC3)c2)nn1 [Compound 4640, 2-(4-((4-(2-(4-cyclobutylpiperazin-1-yl)pyridin-4-yl)-1H-1,2,3-triazol-1-yl)methyl)-3-fluorophenyl)-5-(difluoromethyl)-1,3,4-oxadiazole] | > 50 µM | 807 fold | 0.0619 µM | – | – | – |
| CC1CCN(Cc2cccc(-c3cn(Cc4ncc(-c5nnc(C(F)F)o5)cc4F)nn3)c2)CC1 [Compound 18459] | > 50 µM | 778 fold | 0.0642 µM | – | – | – |
| CCOC(=O)N1CCC(c2cn(Cc3ccc(-c4nnc(C(F)F)o4)cn3)nn2)CC1 [Compound 3892, Ethyl4-(1-((5-(5-(difluoromethyl)-1,3,4-oxadiazol-2-yl)pyridin-2-yl)methyl)-1H-1,2,3-triazol-4-yl)piperidin-1-carboxylate] | – | – | – | > 50 µM | 357 fold | 0.14 µM |
| CN1CCc2cc(-c3cn(Cc4ccc(-c5nnc(C(F)F)o5)cc4F)nn3)ccc2C1 [Compound 4358, 2-(difluoromethyl)-5-(3-fluoro-4-((4-(2-methyl-1,2,3,4-tetrahydroisoquinolin-6-yl)-1H-1,2,3-triazol-1-yl)methyl)phenyl)-1,3,4-oxadiazole] | – | – | – | > 50 µM | 1515 fold | 0.033 µM |
| FC(F)c1nnc(-c2ccc(Cn3cc(C4CN(C5CCC5)C4)nn3)nc2)o1 [Compound 3954, 2-(6-((4-(1-cyclobutylazetidin-3-yl)-1H-1,2,3-triazol-1-yl)methyl)pyridin-3-yl)-5-(difluoromethyl)-1,3,4-oxadiazole] | – | – | – | > 50 µM | 116 fold | 0.429 µM |
| CCC(F)(CC)CN1CCC(c2cccc(-c3cn(Cc4ccc(-c5nnc(C(F)F)o5)cc4F)nn3)c2)CC1 [Compound 4350, 2-(difluoromethyl)-5-(4-((4-(3-(1-(2-ethyl-2-fluorobutyl)piperidin-4-yl)phenyl)-1H-1,2,3-triazol-1-yl)methyl)-3-fluorophenyl)-1,3,4-oxadiazole] | – | – | – | > 50 µM | 82 fold | 0.605 µM |
| FC(F)c1nnc(-c2ccc(Cn3cc(-c4cccc(NC5COC5)c4)nn3)cc2)o1 [Compound 4326, N-(3-(1-(4-(5-(difluoromethyl)-1,3,4-oxadiazol-2-yl)benzyl)-1H-1,2,3-triazol-4-yl)phenyl)oxetan-3-amine] | – | – | – | > 50 µM | 889 fold | 0.0562 µM |
| CC(C)N1CCC(Nc2ccc(F)c(-c3cn(Cc4ccc(-c5nnc(C(F)F)o5)cc4F)nn3)c2)CC1 [Compound 4436, N-(3-(1-(4-(5-(difluoromethyl)-1,3,4-oxadiazol-2-yl)-2-fluorobenzyl)-1H-1,2,3-triazol-4-yl)-4-fluorophenyl)-1-isopropylpiperidin-4-amine] | – | – | – | > 50 µM | 1369 fold | 0.0365 µM |
| CN(C)C(C)(C)C(=O)Nc1cccc(-c2cn(Cc3ccc(-c4nnc(C(F)F)o4)cn3)nn2)c1 [Compound 4231, N-(3-(1-((5-(5-(difluoromethyl)-1,3,4-oxadiazol-2-yl)pyridin-2-yl)methyl)-1H-1,2,3-triazol-4-yl)phenyl)-2-(dimethylamino)-2-methylpropanamide] | – | – | – | > 50 µM | 914 fold | 0.0547 µM |
| FC(F)c1nnc(-c2ccc(Cn3cc(C4(F)COC4)nn3)nc2)o1 [Compound 4280, 2-(difluoromethyl)-5-(6-((4-(3-fluorooxetan-3-yl)-1H-1,2,3-triazol-1-yl)methyl)pyridin-3-yl)-1,3,4-oxadiazole] | – | – | – | > 50 µM | 292 fold | 0.171 µM |

Second part, the compound after the results:

| IC50 (human recombinant HDAC1; [1]) | HDAC6 selectivity (fold) (human recombinant HDAC6; HDAC6 over HDAC1) | IC50 (human recombinant HDAC6; [2]) | IC50 (human recombinant HDAC1; [3]) | HDAC6 selectivity (fold) (human recombinant HDAC6; HDAC1 IC50 / HDAC6 IC50) | IC50 (human recombinant HDAC6; [4]) | Compound |
| --- | --- | --- | --- | --- | --- | --- |
| – | – | – | > 50 µM | 143 fold | 0.349 µM | OC1(c2cn(Cc3ccc(-c4nnc(C(F)F)o4)cn3)nn2)COC1 [Compound 4276, 3-(1-((5-(5-(difluoromethyl)-1,3,4-oxadiazol-2-yl)pyridin-2-yl)methyl)-1H-1,2,3-triazol-4-yl)oxetan-3-ol] |
| – | – | – | > 50 µM | 1308 fold | 0.0382 µM | CN(C)Cc1cccc(-c2cn(Cc3ccc(-c4nnc(C(F)F)o4)cn3)nn2)c1 [Compound 3915, 1-(3-(1-((5-(5-(difluoromethyl)-1,3,4-oxadiazol-2-yl)pyridin-2-yl)methyl)-1H-1,2,3-triazol-4-yl)phenyl)-N,N-dimethylmethanamine] |
| – | – | – | > 50 µM | 3401 fold | 0.0147 µM | FC(F)c1cccc(-c2cn(Cc3ccc(-c4nnc(C(F)F)o4)cn3)nn2)c1 [Compound 4489, 2-(difluoromethyl)-5-(6-((4-(3-(difluoromethyl)phenyl)-1H-1,2,3-triazol-1-yl)methyl)pyridin-3-yl)-1,3,4-oxadiazole] |
| – | – | – | > 50 µM | 228 fold | 0.0219 µM | CCCN1CCN(c2cccc(-c3cn(Cc4ccc(-c5nnc(C(F)F)o5)cc4F)nn3)c2)CC1 [Compound 4374, 2-(difluoromethyl)-5-(3-fluoro-4-((4-(3-(4-propylpiperazin-1-yl)phenyl)-1H-1,2,3-triazol-1-yl)methyl)phenyl)-1,3,4-oxadiazole] |
| – | – | – | > 50 µM | 3144 fold | 0.0159 µM | CC(C)N1CCN(c2ccc(F)c(-c3cn(Cc4ccc(-c5nnc(C(F)F)o5)cc4)nn3)c2)CC1 [Compound 4453, 2-(difluoromethyl)-5-(4-((4-(2-fluoro-5-(4-isopropylpiperazin-1-yl)phenyl)-1H-1,2,3-triazol-1-yl)methyl)phenyl)-1,3,4-oxadiazole] |
| – | – | – | > 50 µM | 310 fold | 0.161 µM | CN(C)c1cccc(-c2cn(Cc3ccc(-c4nnc(C(F)F)o4)cc3)nn2)c1 [Compound 4323, 3-(1-(4-(5-(difluoromethyl)-1,3,4-oxadiazol-2-yl)benzyl)-1H-1,2,3-triazol-4-yl)-N,N-dimethylaniline] |
| – | – | – | > 50 µM | 1126 fold | 0.0444 µM | FC(F)c1nnc(-c2ccc(Cn3cc(-c4cccc(CN5CCC(F)(F)CC5)c4)nn3)nc2)o1 [Compound 4401, 2-(difluoromethyl)-5-(6-((4-(3-((4,4-difluoropiperidin-1-yl)methyl)phenyl)-1H-1,2,3-triazol-1-yl)methyl)pyridin-3-yl)-1,3,4-oxadiazole] |
| – | – | – | > 50 µM | 145 fold | 0.343 µM | CC(C)(C)OC(=O)N1CCC(Cc2cn(Cc3ccc(-c4nnc(C(F)F)o4)cn3)nn2)CC1 [Compound 4000, Tert-butyl 4-((1-((5-(5-(difluoromethyl)-1,3,4-oxadiazol-2-yl)pyridin-2-yl)methyl)-1H-1,2,3-triazol-4-yl)methyl)piperidin-1-carboxylate] |
